From BindingDB's records for doi:10.1016/j.bmcl.2006.02.011 (Zhengzhou University, 2006) come the findings set out here.

The target of the assay is Maltase-glucoamylase (Homo sapiens, UniProt O43451). Description: Inhibition of alpha glucosidase.
Maltase-glucoamylase, sequence (O43451 whole entry): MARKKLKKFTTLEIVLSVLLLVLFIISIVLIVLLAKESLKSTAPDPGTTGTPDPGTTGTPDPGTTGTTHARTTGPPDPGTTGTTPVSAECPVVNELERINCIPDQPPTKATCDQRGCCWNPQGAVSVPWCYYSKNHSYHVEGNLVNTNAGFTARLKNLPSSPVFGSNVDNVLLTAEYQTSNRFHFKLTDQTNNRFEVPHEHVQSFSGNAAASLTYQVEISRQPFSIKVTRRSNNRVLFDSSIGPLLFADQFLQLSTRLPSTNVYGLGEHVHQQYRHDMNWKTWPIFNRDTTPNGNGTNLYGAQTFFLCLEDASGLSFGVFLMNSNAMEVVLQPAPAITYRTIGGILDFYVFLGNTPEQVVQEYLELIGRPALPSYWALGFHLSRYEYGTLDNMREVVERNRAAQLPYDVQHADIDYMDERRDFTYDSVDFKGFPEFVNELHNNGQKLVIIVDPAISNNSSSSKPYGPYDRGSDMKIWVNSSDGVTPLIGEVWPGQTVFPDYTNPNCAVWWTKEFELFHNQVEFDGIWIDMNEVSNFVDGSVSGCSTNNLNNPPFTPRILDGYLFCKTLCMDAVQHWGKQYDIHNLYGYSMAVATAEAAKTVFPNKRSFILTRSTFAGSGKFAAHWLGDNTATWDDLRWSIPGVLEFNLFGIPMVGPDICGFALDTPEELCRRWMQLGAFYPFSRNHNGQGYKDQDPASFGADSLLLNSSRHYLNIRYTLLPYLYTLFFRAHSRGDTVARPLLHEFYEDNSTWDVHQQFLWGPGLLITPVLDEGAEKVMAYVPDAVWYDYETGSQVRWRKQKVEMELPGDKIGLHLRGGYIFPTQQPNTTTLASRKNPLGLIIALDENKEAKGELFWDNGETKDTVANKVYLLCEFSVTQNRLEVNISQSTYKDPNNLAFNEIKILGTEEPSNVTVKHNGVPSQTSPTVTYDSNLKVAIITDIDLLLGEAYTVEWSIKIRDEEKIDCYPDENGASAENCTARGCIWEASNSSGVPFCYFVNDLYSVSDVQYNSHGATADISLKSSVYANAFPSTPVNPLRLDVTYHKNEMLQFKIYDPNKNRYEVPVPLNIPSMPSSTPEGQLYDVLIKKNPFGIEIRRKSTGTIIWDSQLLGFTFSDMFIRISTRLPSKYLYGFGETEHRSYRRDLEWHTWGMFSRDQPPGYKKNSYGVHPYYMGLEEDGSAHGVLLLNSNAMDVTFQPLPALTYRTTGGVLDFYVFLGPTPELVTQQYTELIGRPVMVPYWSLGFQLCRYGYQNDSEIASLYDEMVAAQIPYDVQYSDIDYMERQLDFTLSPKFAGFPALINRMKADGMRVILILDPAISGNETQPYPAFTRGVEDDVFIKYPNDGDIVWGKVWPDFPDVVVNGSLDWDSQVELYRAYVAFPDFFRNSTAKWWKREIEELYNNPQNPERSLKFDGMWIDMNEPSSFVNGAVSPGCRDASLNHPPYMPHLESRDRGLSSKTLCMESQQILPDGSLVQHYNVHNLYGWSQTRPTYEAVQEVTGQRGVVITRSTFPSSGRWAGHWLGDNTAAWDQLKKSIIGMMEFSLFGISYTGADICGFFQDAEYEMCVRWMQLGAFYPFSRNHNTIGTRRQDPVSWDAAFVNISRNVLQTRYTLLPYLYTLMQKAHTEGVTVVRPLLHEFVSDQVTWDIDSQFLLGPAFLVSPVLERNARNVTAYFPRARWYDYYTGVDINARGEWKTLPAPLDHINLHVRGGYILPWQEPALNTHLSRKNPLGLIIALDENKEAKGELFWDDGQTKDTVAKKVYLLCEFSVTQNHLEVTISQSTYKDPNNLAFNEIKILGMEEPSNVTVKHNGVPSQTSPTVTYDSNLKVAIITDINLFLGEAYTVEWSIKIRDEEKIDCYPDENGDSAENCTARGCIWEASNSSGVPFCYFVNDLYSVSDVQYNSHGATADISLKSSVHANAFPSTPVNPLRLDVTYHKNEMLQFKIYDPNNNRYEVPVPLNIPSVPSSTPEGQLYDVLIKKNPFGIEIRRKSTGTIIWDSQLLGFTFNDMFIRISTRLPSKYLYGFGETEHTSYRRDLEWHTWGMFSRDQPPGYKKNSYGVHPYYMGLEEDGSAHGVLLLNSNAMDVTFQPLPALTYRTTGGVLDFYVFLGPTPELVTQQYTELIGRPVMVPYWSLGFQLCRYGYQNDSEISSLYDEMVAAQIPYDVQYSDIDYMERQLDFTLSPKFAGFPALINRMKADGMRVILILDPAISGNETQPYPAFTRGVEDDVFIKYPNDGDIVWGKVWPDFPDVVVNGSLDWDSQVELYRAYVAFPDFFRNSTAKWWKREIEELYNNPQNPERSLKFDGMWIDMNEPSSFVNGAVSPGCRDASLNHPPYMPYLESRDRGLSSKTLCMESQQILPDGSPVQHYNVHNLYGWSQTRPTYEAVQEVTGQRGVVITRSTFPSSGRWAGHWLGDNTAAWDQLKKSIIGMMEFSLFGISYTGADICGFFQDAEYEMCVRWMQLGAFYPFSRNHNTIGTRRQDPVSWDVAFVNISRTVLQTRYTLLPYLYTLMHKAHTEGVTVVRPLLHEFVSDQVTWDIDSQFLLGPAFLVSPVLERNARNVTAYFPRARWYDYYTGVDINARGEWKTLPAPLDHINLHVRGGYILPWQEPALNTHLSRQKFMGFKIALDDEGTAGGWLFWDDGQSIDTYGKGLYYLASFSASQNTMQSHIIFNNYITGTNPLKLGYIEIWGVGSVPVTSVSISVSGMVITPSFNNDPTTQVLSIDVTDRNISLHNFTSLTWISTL
The IC50 is the midpoint of a concentration-inhibition curve. High values mean weaker potency, low ones greater potency. Turning to `C=C1CC[C@@H]2[C@](C)(CO)[C@H](O)CC[C@@]2(C)[C@@H]1/C=C/C1=CC(=C/C=C/c2ccccc2)/OC1=O` [3-(2-((1R,4aS,5R,6R,8aR)-6-hydroxy-5-(hydroxymethyl)-5,8a-dimethyl-2-methylene-decahydronaphthalen-1-yl)vinyl)-5-(3-phenylallylidene)furan-2(5H)-one], the IC50 was found to be 58 µM. That is a double-digit micromolar value.

Turning to `C=C1CC[C@@H]2[C@]3(C)COC(c4ccccc4)O[C@@H]3CC[C@@]2(C)[C@@H]1C/C=C1/C(=O)OC[C@H]1O` (stereo partly drawn) [(S)-3-(2-((4aR,6aS,7R,10aS,10bR)-6a,10b-dimethyl-8-methylene-3-phenyl-decahydro-1H-naphtho[2,1-d][1,3]dioxin-7-yl)ethylidene)-4-hydroxy-dihydrofuran-2(3H)-one], the IC50 turned out to be 101 µM.

`C=C1CC[C@@H]2[C@](C)(CO)[C@H](O)CC[C@@]2(C)[C@@H]1/C=C/C1=CC(=C/CCC)/OC1=O` [5-butylidene-3-(2-((1R,4aS,5R,6R,8aR)-6-hydroxy-5-(hydroxymethyl)-5,8a-dimethyl-2-methylene-decahydronaphthalen-1-yl)vinyl)furan-2(5H)-one] showed an IC50 of 110 µM.

Regarding `COc1ccc(/C=C2C=C(/C=C/[C@@H]3[C@@]4(CC[C@@H]5[C@](C)(CO)[C@H](O)CC[C@]53C)CO4)C(=O)O/2)cc1` [(5Z)-3-[(E)-2-[(1S,2S,4aS,5R,6R,8aR)-6-hydroxy-5-(hydroxymethyl)-5,8a-dimethyl-octahydro-1H-spiro[naphthalene-2,2'-oxirane]-1-yl]ethenyl]-5-[(4-methoxyphenyl)methylidene]-2,5-dihydrofuran-2-one], inhibition was half-maximal at 120 µM (IC50).

In the case of `C=C1CC[C@@H]2[C@]3(C)COC(c4cccc(Br)c4)O[C@@H]3CC[C@@]2(C)[C@@H]1C/C=C1/C(=O)OC[C@H]1O` (stereo partly drawn) [(S)-3-(2-((4aR,6aS,7R,10aS,10bR)-3-(3-bromophenyl)-6a,10b-dimethyl-8-methylene-decahydro-1H-naphtho[2,1-d][1,3]dioxin-7-yl)ethylidene)-4-hydroxy-dihydrofuran-2(3H)-one], the concentration for half-maximal inhibition (IC50) came to 100 µM.

The compound `C[C@]1(CO)[C@H]2CC[C@@]3(CO3)[C@@H](/C=C/C3=CC(=C/C=C/c4ccccc4)/OC3=O)[C@]2(C)CC[C@H]1O` [(5Z)-3-[(E)-2-[(1S,2S,4aS,5R,6R,8aR)-6-hydroxy-5-(hydroxymethyl)-5,8a-dimethyl-octahydro-1H-spiro[naphthalene-2,2'-oxirane]-1-yl]ethenyl]-5-[(2E)-3-phenylprop-2-en-1-ylidene]-2,5-dihydrofuran-2-one] registered an IC50 of 101 µM.
